Experimental data from patent publication US20040126385A1, “Methods and compositions for screening, diagnosing, or treating NF-kappaB related disease” (priority 2001, published 2004).

Assays:
[1] = test system: tumor, liver, and lung tissues; assay: Histology (H&E) of tumor, liver and lung tissues of tumor-bearing animals; type: in vivo, mouse
Description: FIG. 4. Histology of tissues from untreated and Go6976-treated tumor-bearing animals. Tumor growth and treatment conditions are the same as described for FIG. 1. Tumor, liver, and lung tissues from untreated and treated tumor bearing animals were dissected 11 days after the initiation of treatment and 32 days after implantation of the cells. Tissues were processed for hematoxylin/eosin (H&E) staining, examined under a light microscope, and photographed at the indicated magnifications. Arrows show mitotic cells in untreated tumor tissue. Residual tumor (T) and necrotic cells (N) of the treated tumor are shown. Stars in the treated block indicate pycnotic cells with apparent fragmentation and clumping of nuclear DNA.
(§1) Animal model. The tumorigenic potential of CSMLO and dnIkkβ-expressing stable transfectants was examined in female A-J mice 2-3 weeks old. For each mouse, 1.0 s×10^6 cells were implanted under the dorsal skin. Palpable tumors were consistently detected within 10-15 days following implantation of the cells. Body weight and tumor volumes (32) were monitored weekly. Go6976 (0.5 ml of 0.05 mM stock solution in 0.1% DMSO) was administered to each animal locally two times a week. The control group received the same volume of the solvent (0.5 ml of 0.1%).

CSMLO-induced tumors = assay: Tumor growth in mouse tumor model (CSMLO cells implanted in female A-J mice); type: in vivo
Experimental: FIG. 1. Inhibition of growth of tumors by Go6976. Tumors were generated in female A-J mice by implantation of CSMLO cells (10^6) on day 0 (indicated by the arrow). Go6976 (0.5 ml of 0.05 mM solution in 0.1% DMSO) was administered 48 h later to a group of five animals, twice a week locally at the site of implantation of cells (♦). Control group (five animals) received 0.5 ml of 0.1% DMSO similarly (□). Growth of tumors was monitored by measurements of tumor volume at regular intervals (32).
(§2) FIG. 2. Regression of tumors by Go6976. (A) CSMLO cells were implanted on day 0 (indicated by the arrow) as for FIG. 1. Go6976 was administered on day 21 (indicated by the arrow), locally under the tumors of the five animals with comparatively larger tumors (▪). Another five animals received the same volume of 0.1% DMSO (♦) on the same day, and the control group of five animals received nothing (□). (B) One representative of five animals from each group. Animals 1 and 2 are DMSO- and Go6976-treated non-tumor-bearing animals, respectively. Animal 3 is tumor-bearing and without treatment. Animals 4 and 5 represent tumor-bearing groups treated with DMSO and Go6976, respectively. Animal 6 is an A-J mouse that received nothing.
Animal model. […] Palpable tumors were consistently detected within 10-15 days following implantation of the cells. Body weight and tumor volumes (32) were monitored weekly. […]

NF-κB = assay: Level of active NF-κB in nuclear extracts by EMSA; type: cell-based, mouse; conditions: CSMLO cells
Experimental: FIG. 3. Active NF-κB complex in CSMLO cells: Stimulation by PMA and inhibition by Go6976. (A) Nuclear extracts (5 μg protein) from control and PMA-treated (20 ng/ml for 18 h) CSMLO cells were incubated in a standard EMSA reaction mixture containing [γ-^32P]-labeled double-stranded oligonucleotide plus Go6976 at the indicated μM concentrations for […] and subjected to nondenaturing PAGE (7, 31). The autoradiographic signals of the retarded NF-κB-[^32 P]DNA complex is indicated by the upper arrow and the free [γ-^32P]-labeled probe by the lower arrow. (B) The NF-κB-[^32P]DNA complex was characterized by supershift assay with anti-p50 (lanes 3 and 4) or p65 (B, lanes 5 and 6) antibodies. Nuclear extracts were incubated with specific antibodies for 15 min at room temperature, followed by incubation for an additional 30 min in the presence of [γ-^32p] double-stranded NF-κB oligonucleotide, and subjected to EMSA as described (7, 31). The supershifted complexes are indicated by the upper arrow.
Methods. Measurements of the level of active NF-κB by EMSA. The level of active NF-κB in the nuclear extracts of control and treated cells was determined by its DNA binding activity by EMSA as described 7, 30, 31). The [^32P]DNA-protein complex was identified as a retarded radioactive band in EMSA detected by autoradiography. […]

ccD1 = assay: Level of ccD1 by Western blot analysis; type: cell-based, mouse; conditions: CSMLO cells transfected with dnIkkβ
Description: FIG. 5. Inhibition of NF-κB activation and down stream events by stable expression of dominant-negative IκB-kinase β (dnIkkβ). (A Upper) dnIkkβ-Expressing transfectant cells by light microscopy (i), 4′,6-diamidino-2-phenylindole (DAPI)-stained nuclei (ii), and immunofluorescence with anti-FLAG antibody in the presence of the secondary antibody (iii). The positive signals show dnIkkβ-conjugated FLAG protein in the cytoplasm. (Lower) Processed vector-control plasmid-transfected CSMLO cells in which no FLAG protein could be detected (vi). (B Upper) Active NF-κB was determined by its [γ-^32P]DNA binding activity by EMSA, in three dnIkkβ-expressing stable transfectants (dnIkkβ1-1, dnIkkβ1-3, and dnIkkβ1-5) and (Lower) in parent CSMLO cells and vector control plasmid expressing transfectant (vect1-5). (C Upper) The level of ccD1 in the same three-dnIkkβ-expressing CSMLO and vector control transfected cells, as measured by Western blot analysis. (Lower) Actin analyzed similarly by immunodetection with anti-β-actin antibody that serves as a loading control.

[2] = Physical condition and lethality of treated mice; type: in vivo
Experimental: as §2, §1

CSMLO cells = assay: Growth of CSMLO cells under culture conditions; type: cell-based, mouse; conditions: short-term drug treatment with 10 μM Go6976
Experimental: Materials. Mouse mammary adenocarcinoma cells in culture (CSMLO) were grown in complete medium supplemented with 10% FBS and growth factors as described (7, 11, 12). Anti-human ER antibody (SC543), anti-mouse ccD1 antibody, anti-p50, and anti-p65 antibodies for the NF-κB subunits were obtained from Santa Cruz Biotechnology. Rabbit polyclonal IgG raised against the conserved region of actin and anti-Flag (M2) monoclonal antibody were obtained from Sigma-Aldrich. The fluorescein-conjugated goat anti-mouse IgG was from Oncogene Science. Complementary strands of the oligonucleotide (5′-[…]-3′) containing the NF-κB motif (bold faced) were custom synthesized by Integrated DNA Technologies (Coralville, Iowa). The double-stranded NF-κB-oligonucleotide was end-labeled with [γ-^32P]ATP (NEN) and T4 kinase (New England Biolabs) as described (7), and was used for electrophoretic mobility shift assay (EMSA). Hydrocortisone, insulin, DTT, dimethyl sulfoxide (DMSO), and phenylmethylsulfonyl fluoride were obtained from Sigma. Hybond nitrocellulose membrane and ECL (enhanced chemiluminescence) immunodetection kits were obtained from Amersham Pharmacia. Go6976, a nonglyosidic indolcarbazole, and an inhibitor of protein kinase C alpha and beta was purchased from Calbiochem-Novabiochem (28, 29).

SMILES: Cn1c2ccccc2c2c3c(c4c5ccccc5n(CCC#N)c4c21)CNC3=O [Go6976]
- histological changes in tumor tissue ([1]; Go6976-treated tumor-bearing animals, 11 days after initiation of treatment): extensive necrosis
- pycnotic cells in residual tumor tissue (suggestive of DNA fragmentation and apoptosis) ([1]; treated animal, magnification 100×): a large number of pycnotic cells with nuclear clumping
- pathological changes in liver and lung tissue ([1]; tumor-bearing or non-tumor-bearing animals, localized Go6976 treatment): did not show any microscopically detectable pathological changes
- tumor growth (tumor volume) (CSMLO-induced tumors; Go6976 0.5 ml of 0.05 mM in 0.1% DMSO, local, twice a week, started within 48 h of implantation of CSMLO cells, vs DMSO-treated group): substantial inhibition of tumor growth
- regression of full-grown tumors (tumor volume) (CSMLO-induced tumors; Go6976 administered locally 21 days after implantation of CSMLO cells, all of five animals): regressed sharply
- basal level of NF-κB (NF-κB): did not affect the basal level of NF-κB
- PMA-induced elevation of NF-κB activation (NF-κB; PMA 20 ng/ml, simultaneous treatment with Go6976 for 48 h): inhibited in a concentration-dependent manner
- transactivation of ccD1 (ccD1): blocked transactivation of ccD1
- physical defects as judged by body weight and agility ([2]; mice without tumor treated with Go6976): did not show any apparent physical defects
- mouse lethality ([2]; mouse, in vivo): without mouse lethality
- growth of cells under culture conditions (CSMLO cells): not affected
